Among the data in ChEMBL document CHEMBL3862022, “Synthesis and biological evaluation of lovastatin-derived aliphatic hydroxamates that induce reactive oxygen species” (Bioorg Med Chem Lett, 2016) are Activity and IC50 values, retold here.

Data set [1] in a line: Induction of reactive oxygen species in human MDA-MB-231 cells at 10 uM after 24 hrs by DCFH-DA probe-based flow cytometric method. The data set is classed as physicochemical, cell-based. To be noted: mda-mb-231, 24 h. A general note: In flow cytometry, cells or beads pass a laser one at a time.
A short description of data set [2]: Cytotoxicity against human PC3 cells assessed as growth inhibition after 48 hrs by SRB assay. Format: functional, cell-based. To be noted: PC-3, 48 h. On the technique in general: Sulforhodamine B stains cellular protein and so reports cell mass.
Data set [3] is described as follows: Cytotoxicity against human IMR90 cells assessed as growth inhibition up to 40 uM after 24 to 48 hrs by MTT assay. The data set is classed as toxicity, cell-based. The conditions noted are these: imr-90. (In general: Formazan colour is commonly taken as a measure of viable cells.)
For data set [4], the target named is T1, Serine/threonine-protein kinase Chk1/2 (Homo sapiens) (UniProt O96017+O14757). As to the kind of experiment: Induction of CHK1/2 phosphorylation in human MDA-MB-231 cells assessed as increase in p53 phosphorylation at 10 uM after 6 to 24 hrs by Western blot method. Format: cell-based.
Data set [5] has as its target T1, Serine/threonine-protein kinase Chk1/2 (Homo sapiens). Nature of the data set: Induction of CHK1/2 phosphorylation in human MDA-MB-231 cells assessed as increase in p21 protein expression at 10 uM after 6 to 24 hrs by Western blot method. The data set is classed as cell-based.
Data set [6] in a line: Cytotoxicity against human T47D cells assessed as growth inhibition after 24 to 48 hrs by MTT assay. The data set is classed as functional, cell-based.
In data set [7] the test system is MDA-MB-231. Nature of the data set: Induction of apoptosis in human MDA-MB-231 cells assessed as PARP cleavage by flow cytometric method. Format: functional, cell-based.
Data set [8] can be described thus: Cell cycle arrest in human MDA-MB-231 cells assessed as accumulation at S phase at 32 uM after 6 to 12 hrs by propidium iodide staining-based flow cytometric method. The data set is classed as functional.
Data set [9] deals with Serine-protein kinase ATM (Homo sapiens) (UniProt Q13315). Nature of the data set: Induction of ATM phosphorylation in human MDA-MB-231 cells at 10 uM after 6 to 24 hrs by Western blot method. The data set is classed as cell-based.
Data set [10] is described as follows: Cytotoxicity against human MCF7 cells assessed as growth inhibition after 24 to 48 hrs by MTT assay. The data set is classed as functional, cell-based.
Data set [11] has as its system MDA-MB-231. As to the kind of experiment: Binding affinity to DNA minor groove in human MDA-MB-231 cells up to 100 uM after 20 mins by Hoechst 33342 staining-based fluorometric method. The data set is classed as cell-based.
The target of data set [12] is Serine/threonine-protein kinase Chk2 (Homo sapiens) (UniProt O96017). Nature of the data set: Induction of CHK2 phosphorylation in human MDA-MB-231 cells at 10 uM after 6 to 24 hrs by Western blot method. Format: cell-based.
A short description of data set [13]: Cytotoxicity against human MDA-MB-231 cells assessed as growth inhibition after 24 to 48 hrs by MTT assay. Format: functional, cell-based.
The subject of data set [14] is MDA-MB-231. As to the kind of experiment: Induction of DNA damage in human MDA-MB-231 cells assessed as phosphorylation of gammaH2AX at IC50 to 3 times IC50 after 48 hrs by flow cytometric analysis. The data set is classed as functional, cell-based.
The target of data set [15] is T2, Serine/threonine-protein kinase Chk1 (Homo sapiens) (UniProt O14757).
T2 sequence (whole entry): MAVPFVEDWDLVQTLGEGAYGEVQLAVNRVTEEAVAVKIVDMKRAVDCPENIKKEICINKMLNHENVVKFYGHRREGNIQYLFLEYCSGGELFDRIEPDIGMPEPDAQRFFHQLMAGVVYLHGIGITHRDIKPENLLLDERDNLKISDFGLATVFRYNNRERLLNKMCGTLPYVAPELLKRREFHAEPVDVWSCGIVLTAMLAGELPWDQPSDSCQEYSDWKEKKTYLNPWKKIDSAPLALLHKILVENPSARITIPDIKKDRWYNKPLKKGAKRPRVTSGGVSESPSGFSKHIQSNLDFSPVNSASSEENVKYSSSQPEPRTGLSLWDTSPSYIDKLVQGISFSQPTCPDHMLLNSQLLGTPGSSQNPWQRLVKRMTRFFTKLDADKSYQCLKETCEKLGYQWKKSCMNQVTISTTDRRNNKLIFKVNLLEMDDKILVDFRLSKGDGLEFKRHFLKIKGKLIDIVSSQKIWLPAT
As to the kind of experiment: Induction of CHK1 phosphorylation in human MDA-MB-231 cells at 10 uM after 6 to 24 hrs by Western blot method. The data set is classed as cell-based.

Data set [16] can be described thus: Induction of reactive oxygen species in human MDA-MB-231 cells at 30 uM after 24 hrs by DCFH-DA probe-based flow cytometric method. The data set is classed as physicochemical, cell-based. To be noted: mda-mb-231, 24 h.

pIC50: −log10 of the molar value. Active and inactive are the calls of the source. No cut-off for these calls is given here.

T1 sequence (O96017 whole entry, looked up, one chain of several): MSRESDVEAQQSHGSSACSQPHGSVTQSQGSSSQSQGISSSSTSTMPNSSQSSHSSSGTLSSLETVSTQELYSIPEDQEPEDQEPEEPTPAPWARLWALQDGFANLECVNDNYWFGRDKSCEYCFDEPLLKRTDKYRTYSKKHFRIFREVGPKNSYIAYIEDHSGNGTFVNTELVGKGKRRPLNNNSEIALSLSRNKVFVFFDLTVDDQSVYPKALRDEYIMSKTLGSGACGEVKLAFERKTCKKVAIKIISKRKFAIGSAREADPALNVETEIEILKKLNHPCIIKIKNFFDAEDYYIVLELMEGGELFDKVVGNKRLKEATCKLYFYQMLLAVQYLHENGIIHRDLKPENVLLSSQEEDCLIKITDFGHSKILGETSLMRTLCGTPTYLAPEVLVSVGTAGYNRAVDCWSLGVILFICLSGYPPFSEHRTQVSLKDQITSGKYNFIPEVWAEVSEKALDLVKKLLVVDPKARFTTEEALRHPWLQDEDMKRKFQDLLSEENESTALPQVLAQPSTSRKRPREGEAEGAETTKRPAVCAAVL
Sequence of Serine-protein kinase ATM (Homo sapiens) (Q13315 whole entry): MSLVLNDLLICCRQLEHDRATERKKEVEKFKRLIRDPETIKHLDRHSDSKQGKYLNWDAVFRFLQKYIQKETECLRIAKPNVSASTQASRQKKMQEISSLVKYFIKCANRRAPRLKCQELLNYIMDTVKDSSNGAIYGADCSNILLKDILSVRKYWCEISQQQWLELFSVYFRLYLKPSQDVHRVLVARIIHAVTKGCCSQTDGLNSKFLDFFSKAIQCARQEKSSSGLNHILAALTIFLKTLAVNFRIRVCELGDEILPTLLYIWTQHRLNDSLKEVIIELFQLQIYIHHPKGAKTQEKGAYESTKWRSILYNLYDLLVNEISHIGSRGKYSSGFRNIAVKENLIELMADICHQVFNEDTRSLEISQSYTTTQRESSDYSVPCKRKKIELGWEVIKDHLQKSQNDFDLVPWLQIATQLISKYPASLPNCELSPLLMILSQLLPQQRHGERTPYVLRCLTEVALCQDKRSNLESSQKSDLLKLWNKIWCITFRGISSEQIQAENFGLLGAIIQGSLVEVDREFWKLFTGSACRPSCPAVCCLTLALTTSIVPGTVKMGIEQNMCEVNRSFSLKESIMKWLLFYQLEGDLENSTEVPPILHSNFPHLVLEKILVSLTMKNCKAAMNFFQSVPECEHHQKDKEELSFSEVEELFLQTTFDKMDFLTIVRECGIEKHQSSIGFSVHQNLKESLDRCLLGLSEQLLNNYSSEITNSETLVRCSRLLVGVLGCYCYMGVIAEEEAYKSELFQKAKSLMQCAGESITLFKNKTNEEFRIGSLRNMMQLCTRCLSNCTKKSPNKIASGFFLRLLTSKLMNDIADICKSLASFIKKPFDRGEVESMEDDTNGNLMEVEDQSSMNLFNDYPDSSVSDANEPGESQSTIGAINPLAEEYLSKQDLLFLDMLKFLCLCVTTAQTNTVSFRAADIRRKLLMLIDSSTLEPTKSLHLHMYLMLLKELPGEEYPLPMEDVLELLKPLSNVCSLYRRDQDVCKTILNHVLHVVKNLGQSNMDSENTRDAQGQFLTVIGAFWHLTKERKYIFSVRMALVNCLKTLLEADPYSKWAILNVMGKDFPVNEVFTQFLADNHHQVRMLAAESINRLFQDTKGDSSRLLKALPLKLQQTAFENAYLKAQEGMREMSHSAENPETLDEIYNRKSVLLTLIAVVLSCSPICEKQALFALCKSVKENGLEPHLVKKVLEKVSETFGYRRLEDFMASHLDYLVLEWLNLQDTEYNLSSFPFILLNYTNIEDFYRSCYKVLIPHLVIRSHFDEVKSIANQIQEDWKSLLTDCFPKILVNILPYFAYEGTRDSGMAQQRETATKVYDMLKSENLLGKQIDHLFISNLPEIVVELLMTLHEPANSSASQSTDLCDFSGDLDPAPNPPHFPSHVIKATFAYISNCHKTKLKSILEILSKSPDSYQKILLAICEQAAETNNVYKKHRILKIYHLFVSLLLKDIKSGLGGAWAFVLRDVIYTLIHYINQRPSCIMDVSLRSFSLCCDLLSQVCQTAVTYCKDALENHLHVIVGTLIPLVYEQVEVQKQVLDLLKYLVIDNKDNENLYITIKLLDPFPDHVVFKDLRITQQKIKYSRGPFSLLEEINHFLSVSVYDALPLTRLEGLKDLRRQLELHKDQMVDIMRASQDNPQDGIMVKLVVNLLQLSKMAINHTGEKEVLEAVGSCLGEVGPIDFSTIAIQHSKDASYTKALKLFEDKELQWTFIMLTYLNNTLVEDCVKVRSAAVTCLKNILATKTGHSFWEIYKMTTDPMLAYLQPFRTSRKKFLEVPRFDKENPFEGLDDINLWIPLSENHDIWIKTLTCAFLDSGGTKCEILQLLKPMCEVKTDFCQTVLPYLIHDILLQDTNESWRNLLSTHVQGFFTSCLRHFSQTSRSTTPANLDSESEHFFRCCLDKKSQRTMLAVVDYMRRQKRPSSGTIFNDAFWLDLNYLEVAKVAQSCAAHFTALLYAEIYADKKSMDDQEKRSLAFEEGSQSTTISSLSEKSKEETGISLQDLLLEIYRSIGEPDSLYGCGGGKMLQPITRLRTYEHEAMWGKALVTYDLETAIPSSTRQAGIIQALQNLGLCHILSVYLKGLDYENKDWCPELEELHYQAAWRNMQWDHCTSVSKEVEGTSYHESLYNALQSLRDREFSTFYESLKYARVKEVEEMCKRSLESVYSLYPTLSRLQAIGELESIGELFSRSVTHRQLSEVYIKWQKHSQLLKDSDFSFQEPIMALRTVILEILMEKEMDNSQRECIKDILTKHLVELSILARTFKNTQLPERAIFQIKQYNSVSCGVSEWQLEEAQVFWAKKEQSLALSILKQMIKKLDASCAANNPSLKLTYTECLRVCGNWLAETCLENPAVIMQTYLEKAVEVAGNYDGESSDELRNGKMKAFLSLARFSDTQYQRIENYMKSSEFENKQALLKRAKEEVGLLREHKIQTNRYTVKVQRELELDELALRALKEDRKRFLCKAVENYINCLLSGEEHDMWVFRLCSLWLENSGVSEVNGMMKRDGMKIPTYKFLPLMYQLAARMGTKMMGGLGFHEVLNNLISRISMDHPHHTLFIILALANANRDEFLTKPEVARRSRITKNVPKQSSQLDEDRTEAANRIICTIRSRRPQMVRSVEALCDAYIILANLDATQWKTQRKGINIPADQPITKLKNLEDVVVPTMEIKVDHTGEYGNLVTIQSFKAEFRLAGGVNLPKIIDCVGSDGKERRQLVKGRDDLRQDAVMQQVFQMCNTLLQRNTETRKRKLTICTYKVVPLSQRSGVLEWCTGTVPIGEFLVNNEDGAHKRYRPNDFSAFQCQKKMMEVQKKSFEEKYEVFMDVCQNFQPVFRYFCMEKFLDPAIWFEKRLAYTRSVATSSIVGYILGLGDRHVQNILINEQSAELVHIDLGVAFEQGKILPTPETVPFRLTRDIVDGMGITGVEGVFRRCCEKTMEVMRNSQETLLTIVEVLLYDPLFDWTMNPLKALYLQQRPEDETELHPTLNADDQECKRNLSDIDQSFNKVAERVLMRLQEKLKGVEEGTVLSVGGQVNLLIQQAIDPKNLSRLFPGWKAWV
Sequence of Serine/threonine-protein kinase Chk2 (Homo sapiens) (O96017 whole entry): as the sequence (O96017 whole entry, looked up, one chain of several) above

For the molecule `CC[C@H](C)C(=O)O[C@H]1C[C@@H](C)C=C2C=C[C@H](C)[C@H](CC[C@@H](O)C[C@@H](CC(=O)NO)OC(=O)c3ccc(OC(F)(F)F)cc3)[C@H]21`, the outcome in data set [1] was Active. Moreover, the pIC50 in data set [2] is 4.69.

As for `CC[C@H](C)C(=O)O[C@H]1C[C@@H](C)C=C2C=C[C@H](C)[C@H](CC[C@@H](O)C[C@@H](CC(=O)NO)OC(=O)c3ccccc3)[C@H]21`, the Activity entry is “Non-Toxic” in data set [3], “Dose-dependent effect” in data set [7] and “Active” in data set [1]. Moreover, the outcome in data set [4], in [5], in data set [8], in data set [9], in data set [11] and in data set [12] was Active. Also, the result in data set [14] and in data set [15] was Active. Further, the pIC50 in data set [6] was 4.40 to 4.52; in data set [10], 4.40 to 4.52; in data set [2], 5.48; in data set [13], 4.40 to 4.52.

As for `CC[C@H](C)C(=O)O[C@H]1C[C@@H](C)C=C2C=C[C@H](C)[C@H](CC[C@@H](O)C[C@@H](CC(=O)NO)OC(=O)c3ccc([N+](=O)[O-])cc3)[C@H]21`, in data set [1], the result was Active. Further, in data set [2], the pIC50 is 5.09.

Turning to `CC[C@H](C)C(=O)O[C@H]1C[C@@H](C)C=C2C=C[C@H](C)[C@H](CC[C@@H](O)C[C@@H](CC(=O)NO)OC(=O)Cc3ccccc3)[C@H]21`, the outcome in data set [1] was Active. Moreover, in data set [2], the pIC50 is 5.24.

On to `C[C@H]1C=C2C=C[C@H](C)[C@H](CC[C@@H](O)C[C@H](O)CC(=O)NO)[C@H]2[C@@H](O)C1`, for which the outcome in data set [1] was Active. Moreover, the pIC50 in [2] was under 4.52.

On to `CC[C@H](C)C(=O)O[C@H]1C[C@@H](C)C=C2C=C[C@H](C)[C@H](CC[C@@H](O)C[C@@H](CC(=O)NO)OC(C)=O)[C@H]21`, for which the outcome in data set [1] was Active. Also, in data set [2], the pIC50 was 4.94.

With `CC[C@H](C)C(=O)O[C@H]1C[C@@H](C)C=C2C=C[C@H](C)[C@H](CC[C@@H]3C[C@@H](O)CC(=O)O3)[C@H]21` [LOVASTATIN], the outcome in data set [4] and in data set [9] was Active. The pIC50 is under 4.40 in [6], under 4.40 in data set [10], 5.27 in [2] and under 4.40 in [13]. Further, the result in data set [16] was Active.

In the case of `CC[C@H](C)C(=O)O[C@H]1C[C@@H](C)C=C2C=C[C@H](C)[C@H](CC[C@@H](O)C[C@@H](CC(=O)NO)OC(=O)c3ccc4ccccc4c3)[C@H]21`, in data set [1], the result was Active. Besides, the pIC50 in data set [2] was 4.76.

Consider `CC[C@H](C)C(=O)O[C@H]1C[C@@H](C)C=C2C=C[C@H](C)[C@H](CC[C@@H](O)C[C@@H](CC(=O)NO)OC(=O)CCc3ccccc3)[C@H]21`, for which, in data set [1], the outcome was Active. The pIC50 in [2] is 5.21.

Take `CC[C@H](C)C(=O)O[C@H]1C[C@@H](C)C=C2C=C[C@H](C)[C@H](CC[C@@H](O)C[C@@H](CC(=O)NO)OC(=O)C(C)(C)C)[C@H]21`: the result in [1] was Active. In [2], the pIC50 is 5.14.

In the case of `CC[C@H](C)C(=O)O[C@H]1C[C@@H](C)C=C2C=C[C@H](C)[C@H](CC[C@@H](O)C[C@@H](CC(=O)NO)OC(=O)c3ccc(Cl)cc3)[C@H]21`, in data set [1], the outcome was Active. In addition, in [2], the pIC50 is 4.66.

One may read the pIC50 as the IC50 on a negative log10 scale, so that one unit is a factor of ten.
